From patent publication US9540397B2, “BACE1 inhibitors” (Hoffmann-La Roche Inc., priority 2014, dated 2017)

Key:
[1] = target: T1, BACE1 (Homo sapiens, UniProt P56817); experiment: Cellular Aβ-lowering assay (Abeta 40 AlphaLISA, HEK293 APP cells); type: cell-based; settings: 18-20 hrs incubation, Aβ40 in culture supernatant, read-out: BACE1 cell act. Aβ40 IC50
T1 construct: endogenous in cells; host or cells: HEK293 APP cells
Procedure: Cellular Aβ-lowering assay:
The Abeta 40 AlphaLISA Assay can be used. The HEK293 APP cells were seeded in 96 well Microtiter plates in cell culture medium (Iscove's, plus 10% (v/v) fetal bovine serum, penicillin/streptomycin) to about 80% confluency and the compounds were added at a 3× concentration in ⅓ volume of culture medium (final DMSO concentration was kept at 1% v/v). After 18-20 hrs incubation at 37° C. and 5% CO2 in a humidified incubator, the culture supernatants were harvested for the determination of AP 40 concentrations using Perkin-Elmer Human Amyloid beta 1-40 (high specificity) Kit (Cat#AL275C).
In a Perkin-Elmer White Optiplate-384 (Cat#6007290), 2 ul culture supernatants were combined with 2 μl of a 10× AlphaLISA Anti-hAβ Acceptor beads+Biotinylated Antibody Anti-Aβ 1-40 Mix ([…]/5 nM). After 1 hour room temperature incubation, 16 μl of a 1.25× preparation of Streptavidin (SA) Donor beads (25 μg/mL) were added and incubated for 30 minutes in the Dark. Light Emission at 615 nm was then recorded using EnVision-Alpha Reader. Levels of Aβ 40 in the culture supernatants were calculated as percentage of maximum signal (cells treated with 1% DMSO without inhibitor). The IC50 values were calculated using the Excel XLfit software.

[2] = test system: Aβ40 in brain of wild-type mice; experiment: Lowering of Aβ40 in brain of wild-type mice; type: in vivo; settings: Mus musculus, po; female C57Bl/6J mice, 30 mg/kg per os, 4 h; brain Aβ40 related to the value in the vehicle group; read-out: Aβ40 (wt mice, brain)
Procedure: Lowering of Aβ40 in Brain of Wild-Type Mice:
Animals and Housing Conditions.
Animals were maintained in a 12/12 h light/dark cycle, with lights starting at 6 a.m., and experiments were conducted during the light phase. Animal housing and experimental procedures were in line with ethical and legal guidelines and were authorized by local veterinary authorities.
Experiment. Female C57Bl/6J mice were treated with a dose of 30 mg/kg of the compounds, 3-4 animals per treatment group. The test compound was dissolved in 5% EtOH, 10% Solutol, and was applied per os at 10 mL/kg. After 4 h, the animals were sacrificed and brain and plasma were collected. The brain was cut into halves and immediately frozen on dry ice. Brain was used for measurement of Aβ40 and plasma was used for determination of compound exposure. […] Brain tissue was homogenized in 2% DEA buffer in a Roche MagnaLyser (20″, 4000 rpm) and subsequently centrifuged for 1 h at 100000 g. DEA was reduced to 0.2% in 50 mM NaCl and one-half of the DEA lysate was passed over an Oasis Solid phase extraction plate (Waters; cat. no. 186000679), which had been activated with MeOH and equilibrated in dH2O (1 mL each). After washes in 10% and 30% MeOH (1 mL each), the Aβ-peptides were eluted in 0.8 mL of 2% NH4OH in 90% MeOH. The eluate was dried over a N2 flow, and the dried sample was reconstituted in 30 μL of AlphaLISA assay buffer. Aβ40 was determined by an AlphaLISA assay (Perkin-Elmer). In a white 96-well, half area microplate (Perkin-Elmer cat. no. 6005561), 20 μL of the reconstituted sample were mixed with 5 μL of biotinylated BAP-24 (specific for C-terminus of Aβ40) (Brockhaus, M.; Grunberg, J.; Rohrig, S.; Loetscher, H.; Wittenburg, N.; Baumeister, R.; Jacobsen, H.; Haass, C. Caspasemediated cleavage is not required for the activity of presenilins in amyloidogenesis and NOTCH signaling. NeuroReport 1998, 9, 1481-1486.) stock=4.4 mg/mL, f.c.5.5 μg/mL), and 5 μL 252Q6 acceptor beads (252Q6 antibody, Invitrogen AMB0062) had been previously conjugated with AlphaLISA Acceptor beads (Perkin-Elmer cat. no. 6772002); final dilution 1:500). The mix was incubated for 1 h at RT in the dark. Then 20 μL of Streptavin-coated Donor Beads (Perkin-Elmer cat. no. 6760002, final dilution 1:125) were added and this final mix was incubated in the dark for another 30 min at RT before RFU was measured in an AlphaScreen Reader (Perkin-Elmer Envision 2104). The value obtained for Aβ40 in the treated animals was related to the value in the vehicle group and is given in %. Alternatively a commercial ELISA was used for Aβ40 determination (Wako ELISA: (“Human/Rat β Amyloid (40) ELISA kit Wako II”; cat nr. 294-64701) following the manufacture's instruction. Also here the Aβ-lowering efficacy was calculated as percentage of the vehicle group.

T1 sequence (P56817 46-501): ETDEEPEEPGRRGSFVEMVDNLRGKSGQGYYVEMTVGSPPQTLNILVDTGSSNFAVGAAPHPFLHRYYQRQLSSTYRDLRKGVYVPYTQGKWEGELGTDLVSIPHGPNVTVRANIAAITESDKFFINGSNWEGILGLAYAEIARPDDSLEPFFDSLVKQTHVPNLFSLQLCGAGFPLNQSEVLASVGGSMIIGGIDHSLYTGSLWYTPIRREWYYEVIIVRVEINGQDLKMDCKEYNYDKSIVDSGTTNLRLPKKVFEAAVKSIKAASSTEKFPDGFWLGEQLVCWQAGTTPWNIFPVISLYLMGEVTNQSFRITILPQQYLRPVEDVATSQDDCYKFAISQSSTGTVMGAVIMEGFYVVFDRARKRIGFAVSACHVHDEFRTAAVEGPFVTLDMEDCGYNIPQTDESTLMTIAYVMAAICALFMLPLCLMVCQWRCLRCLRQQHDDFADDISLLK

| IC50 [1] [nM] | SMILES | response vs control in vivo at 30 mg/kg [2] [%] |
| --- | --- | --- |
| 0.6 | Cc1cc(C#N)cnc1C(=O)Nc1ccc(F)c([C@@]2(C)N=C(N)C(C)(C)[S@@]3(=O)=NCCC[C@H]23)n1 [Example 1AA, N-(6-((4aR,5R,9R)-7-amino-5,8,8-trimethyl-9-oxido-2,3,4,4a,5,8-hexahydro-[1,4]thiazino[2,1-f][1,2]thiazin-5-yl)-5-fluoropyridin-2-yl)-5-cyano-3-methylpicolinamide] | 38 |
| 0.6 | CC1(C)C(N)=N[C@](C)(c2nc(NC(=O)c3ncc(Cl)cc3Cl)ccc2F)[C@@H]2CCN=[S@@]21=O [Example 29AB, N-(6-((3aS,4R,8R)-6-amino-4,7,7-trimethyl-8-oxido-3,3a,4,7-tetrahydro-2H-isothiazolo[1,5-a][1,4]thiazin-4-yl)-5-fluoropyridin-2-yl)-3,5-dichloropicolinamide] | 88 |
| 28.5 | Cc1c(C(=O)Nc2ccc(F)c([C@@]3(C)N=C(N)C(C)(C)[S@@]4(=O)=NCCC[C@H]34)n2)nc2ccc(Cl)cn12 [Example 6AA, N-(6-((4aR,5R,9R)-7-amino-5,8,8-trimethyl-9-oxido-2,3,4,4a,5,8-hexahydro-[1,4]thiazino[2,1-f][1,2]thiazin-5-yl)-5-fluoropyridin-2-yl)-6-chloro-3-methylimidazo[1,2-a]pyridine-2-carboxamide] | 103 |
| 26.6 | CC1(C)C(N)=N[C@](C)(c2nc(NC(=O)c3ncc(OC(F)F)cc3Cl)ccc2F)[C@H]2CC(F)(F)CN=[S@@]21=O [Example 45AA, N-(6-((4aR,5R,9R)-7-amino-3,3-difluoro-5,8,8-trimethyl-9-oxido-2,3,4,4a,5,8-hexahydro-[1,4]thiazino[2,1-f][1,2]thiazin-5-yl)-5-fluoropyridin-2-yl)-3-chloro-5-(difluoromethoxy)-picolinamide] | 85 |
| 1.6 | CC1(C)C(N)=N[C@](C)(c2nc(NC(=O)c3ncc(C#N)cc3Cl)ccc2F)[C@H]2CC(F)(F)CN=[S@@]21=O [Example 37AA, N-(6-((4aR,5R,9R)-7-amino-3,3-difluoro-5,8,8-trimethyl-9-oxido-2,3,4,4a,5,8-hexahydro-[1,4]thiazino[2,1-f][1,2]thiazin-5-yl)-5-fluoropyridin-2-yl)-3-chloro-5-cyanopicolinamide] | 73 |
| 56 | CC1(C)C(N)=N[C@](C)(c2nc(NC(=O)c3ccc(Cl)cn3)ccc2F)[C@H]2CC(F)(F)CN=[S@@]21=O [Example 43AA, N-(6-((4aR,5R,9R)-7-amino-3,3-difluoro-5,8,8-trimethyl-9-oxido-2,3,4,4a,5,8-hexahydro-[1,4]thiazino[2,1-f][1,2]thiazin-5-yl)-5-fluoropyridin-2-yl)-5-chloropicolinamide] | 80 |
| 30.4 | CC1(C)C(N)=N[C@](C)(c2nc(NC(=O)c3ncc(F)cc3Cl)ccc2F)[C@H]2CC(F)(F)CN=[S@@]21=O [Example 41AA, N-(6-((4aR,5R,9R)-7-amino-3,3-difluoro-5,8,8-trimethyl-9-oxido-2,3,4,4a,5,8-hexahydro-[1,4]thiazino[2,1-f][1,2]thiazin-5-yl)-5-fluoropyridin-2-yl)-3-chloro-5-fluoropicolinamide] | 78 |
| 2.8 | CC1(C)C(N)=N[C@](C)(c2nc(NC(=O)c3ncc(OC(F)F)cc3Cl)ccc2F)[C@@H]2CCN=[S@@]21=O [Example 28AB, N-(6-((3aS,4R,8R)-6-amino-4,7,7-trimethyl-8-oxido-3,3a,4,7-tetrahydro-2H-isothiazolo[1,5-a][1,4]thiazin-4-yl)-5-fluoropyridin-2-yl)-3-chloro-5-(difluoromethoxy)picolinamide] | 100 |
| 2.3 | Cc1cc(C#N)cnc1C(=O)Nc1ccc(F)c([C@@]2(C)N=C(N)C(C)(C)[S@@]3(=O)=NCCC[C@@H]23)n1 [Example 1AB, N-(6-((4aS,5R,9R)-7-amino-5,8,8-trimethyl-9-oxido-2,3,4,4a,5,8-hexahydro-[1,4]thiazino[2,1-f][1,2]thiazin-5-yl)-5-fluoropyridin-2-yl)-5-cyano-3-methylpicolinamide] | 79 |
| 14.9 | Cc1cc(C#N)cnc1C(=O)Nc1ccc(F)c([C@@]2(C)N=C(N)C(C)(C)[S@]3(=O)=NCC[C@H]23)n1 [Example 9BA, N-(6-((3aR,4R,8S)-6-amino-4,7,7-trimethyl-8-oxido-3,3a,4,7-tetrahydro-2H-isothiazolo[1,5-a][1,4]thiazin-4-yl)-5-fluoropyridin-2-yl)-5-cyano-3-methylpicolinamide] | 86 |
| 3.5 | CC1(C)C(N)=N[C@](C)(c2nc(NC(=O)c3ncc(F)cc3Cl)ccc2F)[C@@H]2CCN=[S@@]21=O [Example 11AB, N-(6-((3aS,4R,8R)-6-amino-4,7,7-trimethyl-8-oxido-3,3a,4,7-tetrahydro-2H-isothiazolo[1,5-a][1,4]thiazin-4-yl)-5-fluoropyridin-2-yl)-3-chloro-5-fluoropicolinamide] | 100 |
| 8.6 | COc1cnc(C(=O)Nc2ccc(F)c([C@@]3(C)N=C(N)C(C)(C)[S@@]4(=O)=NCC[C@@H]34)n2)cn1 [Example 16AB, N-(6-((3aS,4R,8R)-6-amino-4,7,7-trimethyl-8-oxido-3,3a,4,7-tetrahydro-2H-isothiazolo[1,5-a][1,4]thiazin-4-yl)-5-fluoropyridin-2-yl)-5-methoxypyrazine-2-carboxamide] | 89 |
| 9.8 | CC1(C)C(N)=N[C@](C)(c2nc(NC(=O)c3ccc(OCF)cn3)ccc2F)[C@@H]2CCN=[S@@]21=O [Example 13AB, N-(6-((3aS,4R,8R)-6-amino-4,7,7-trimethyl-8-oxido-3,3a,4,7-tetrahydro-2H-isothiazolo[1,5-a][1,4]thiazin-4-yl)-5-fluoropyridin-2-yl)-5-(fluoromethoxy)picolinamide] | 86 |
| 416 | CC1(C)C(N)=N[C@](C)(c2nc(NC(=O)c3ccc(OCC(F)(F)C(F)F)cn3)ccc2F)[C@H]2CC(F)(F)CN=[S@@]21=O [Example 36AA, N-(6-((4aR,5R,9R)-7-amino-3,3-difluoro-5,8,8-trimethyl-9-oxido-2,3,4,4a,5,8-hexahydro-[1,4]thiazino[2,1-f][1,2]thiazin-5-yl)-5-fluoropyridin-2-yl)-5-(2,2,3,3-tetrafluoropropoxy)-picolinamide] | 84 |
| 114 | Cc1cc(F)cnc1C(=O)Nc1ccc(F)c([C@@]2(C)N=C(N)C(C)(C)[S@@]3(=O)=NCC(F)(F)C[C@H]23)n1 [Example 39AA, N-(6-((4aR,5R,9R)-7-amino-3,3-difluoro-5,8,8-trimethyl-9-oxido-2,3,4,4a,5,8-hexahydro-[1,4]thiazino[2,1-f][1,2]thiazin-5-yl)-5-fluoropyridin-2-yl)-5-fluoro-3-methylpicolinamide] |  |
